Assay results taken from patent publication US20100203531A1, “PREDICTING RESPONSIVENESS TO TEMOZOLOMIDE” (priority 2007, published 2010).

Key:
Type in all cases: in vivo, human
GBM14 xenograft = assay: Orthotopic intracranial xenograft survival, GBM14
Protocol: (§1) In vivo sensitivity of GBM lines to TMZ: To address whether MGMT methylation or polypeptide expression status are predictive of TMZ responsiveness, the effects of TMZ therapy on survival were evaluated in the panel of xenografts using an orthotopic therapy model. Mice with established intracranial xenografts were treated with 66 mg/kg TMZ or placebo daily for 5 days by oral gavage. This TMZ dosing regimen provides the equivalent dose-exposure to TMZ as the standard adjuvant TMZ dosing regimen for GBM patients of 200 mg/m^2×5 days. All mice were followed until reaching a moribund state, and the relative prolongation of survival following TMZ treatment was calculated for each line relative to placebo treatment (Table 1). […] Further analysis of the relationship between TMZ responsiveness and MGMT methylation status in 17 xenograft lines was conducted by comparing the distribution of median survival prolongation results for methylation-positive and methylation-negative groups of xenografts. From this analysis, MGMT methylation was modestly associated with increased TMZ sensitivity (FIG. 2, p=0.039, two-sample rank sum test). In a similar analysis of MGMT polypeptide expression levels, high levels of MGMT polypeptide expression were invariably associated with relative TMZ resistance, and the absence of MGMT polypeptide expression was associated with significant TMZ sensitivity (r=−0.73, p=0.005). […] While p53, PTEN and EGFR function have been linked to TMZ sensitivity in some models, no correlation between genetic alterations of these genes and TMZ responsiveness was observed.
(§2) Orthotopic model: Therapy evaluations were conducted using an orthotopic tumor model as described elsewhere (Sarkaria et al., Clin Cancer Res, 12:2264-2271 (2006), Giannini et al., Neuro-Oncology, 7:164-176, (2005)). Athymic nude mice (NCI, Frederick, Md.) with established intracranial tumors were randomized into groups of 8 to 10 mice each and treatment was initiated 2 weeks before mice were expected to become moribund. TMZ was purchased from the Mayo Clinic Pharmacy, suspended in Ora-plus (Paddock Laboratories, Minneapolis. […] Mice were observed daily and euthanized when moribund.
(§3) Statistical analysis: Survival distributions were estimated using the Kaplan-Meier method. The log rank test was used to compare survival across treatment groups. All GBM experiments were pooled and Classification and Regression Tree analysis (CART) was used to identify which CpG sites in the MS-PCR assay (CpG sites 78-82, 86-89) were predictive of overall survival in TMZ treated mice. The two-sample rank sum test was used to compare relative differences in survival relative to MGMT MS-PCR status or CpG89 methylation status. Spearman's correlation coefficient was used to assess the association of relative median survival and protein expression levels of MGMT relative to 13-actin.

GBM16 xenograft = assay: Orthotopic intracranial xenograft survival, GBM16; details: for Survival Prolongation: median survival relative to placebo, 66 mg/kg oral for 5 days (Table 3), 66 mg/kg
Protocol: as §1
(§4) Orthotopic model: Therapy evaluations were conducted using an orthotopic tumor model as described elsewhere (Sarkaria et al., Clin Cancer Res, 12:2264-2271 (2006), Giannini et al., Neuro-Oncology, 7:164-176, (2005)). Athymic nude mice (NCI, Frederick, Md.) with established intracranial tumors were randomized into groups of 8 to 10 mice each and treatment was initiated 2 weeks before mice were expected to become moribund. TMZ was purchased from the Mayo Clinic Pharmacy, suspended in Ora-plus (Paddock Laboratories, Minneapolis. MN), and administered by oral gavage at 66 mg/kg for 5 days. Mice were observed daily and euthanized when moribund.
as §3

GBM22 / GS22 xenograft = assay: Orthotopic intracranial xenograft survival, GBM22 (GS22)
Protocol: as §1, §4
(§5) Statistical analysis: Survival distributions were estimated using the Kaplan-Meier method. The log rank test was used to compare survival across treatment groups. All GBM experiments were pooled and Classification and Regression Tree analysis (CART) was used to identify which CpG sites in the MS-PCR assay (CpG sites 78-82, 86-89) were predictive of overall survival in TMZ treated mice. The two-sample rank sum test was used to compare relative differences in survival relative to MGMT MS-PCR status or CpG89 methylation status. […]

GBM26 xenograft = assay: Orthotopic intracranial xenograft survival, GBM26; details: for Survival Prolongation: median survival relative to placebo, 66 mg/kg oral for 5 days (Table 3), 66 mg/kg
Protocol: as §1, §4, §3

GBM34 xenograft = assay: Orthotopic intracranial xenograft survival, GBM34
Protocol: as §1, §4, §5

GBM38 xenograft = assay: Orthotopic intracranial xenograft survival, GBM38
Protocol: (§6) In vivo sensitivity of GBM lines to TMZ: To address whether MGMT methylation or polypeptide expression status are predictive of TMZ responsiveness, the effects of TMZ therapy on survival were evaluated in the panel of xenografts using an orthotopic therapy model. Mice with established intracranial xenografts were treated with 66 mg/kg TMZ or placebo daily for 5 days by oral gavage. This TMZ dosing regimen provides the equivalent dose-exposure to TMZ as the standard adjuvant TMZ dosing regimen for GBM patients of 200 mg/m^2×5 days. All mice were followed until reaching a moribund state, and the relative prolongation of survival following TMZ treatment was calculated for each line relative to placebo treatment (Table 1). […] Further analysis of the relationship between TMZ responsiveness and MGMT methylation status in 17 xenograft lines was conducted by comparing the distribution of median survival prolongation results for methylation-positive and methylation-negative groups of xenografts. From this analysis, MGMT methylation was modestly associated with increased TMZ sensitivity (FIG. 2, p=0.039, two-sample rank sum test). […]

GBM43 xenograft = assay: Orthotopic intracranial xenograft survival, GBM43
Protocol: as §1, §2, §3

GBM46 xenograft = assay: Orthotopic intracranial xenograft survival, GBM46
Protocol: as §6

[1] = test system: GBM14 cells transduced with a luciferase-expressing lentiviral construct; assay: Salvage TMZ therapy in intracranial GBM14-luciferase tumors with bioluminescence imaging
Protocol: Development of resistance to TMZ during in vivo therapy: The effect of salvage TMZ therapy in recurrent tumors was studied in the GBM14 xenograft line with the assistance of bioluminescence imaging (BLI). In this study, GBM14 cells were transduced with a luciferase-expressing lentiviral construct and then used to establish intracranial tumors. Mice were randomized into three groups: a) vehicle control, b) single dose of 120 mg/kg TMZ, c) initial TMZ dose followed by a second TMZ dose at the time of tumor regrowth, as indicated by BLI (FIGS. 7A and B). […] Extrapolating to the clinic, the apparent development of TMZ resistance during the course of treatment is reminiscent of patients who experience an initial response to TMZ therapy but then develop progressive disease during latter cycles of TMZ treatment.

Cn1nnc2c(C(N)=O)ncn2c1=O [TMZ, Temozolomide]
Survival Prolongation (GBM14 xenograft; GBM14, median survival relative to placebo, 66 mg/kg oral for 5 days (Table 3)): 558% | Survival benefit (GBM14 xenograft; GBM14, prolongation of median survival relative to placebo, TMZ 66 mg/kg oral x5 days): 558% | Survival benefit (GBM14 xenograft; GBM14 generation 21, TMZ 120 mg/kg for 5 days, intracranial): 148% | Survival benefit (GBM14 xenograft; GBM14 generation 33, TMZ 66 mg/kg for 5 days, intracranial): 421% | TMZ median survival (GBM14 xenograft; GBM14 intracranial xenograft, nude mice, TMZ 66 mg/kg oral daily x5 days): 154 | Temozolomide median survival (GBM14 xenograft; GBM14 intracranial, athymic nude mice, 66 mg/kg oral gavage for 5 days (Table 3)): 217 | Survival Prolongation (GBM16 xenograft; GBM16): 579% | Survival Prolongation (GBM16 xenograft; GBM16, listed as Temozolomide): 579% | Survival benefit (GBM16 xenograft; GBM16, prolongation of median survival relative to placebo, TMZ 66 mg/kg oral x5 days): 579% | TMZ median survival (GBM16 xenograft; GBM16 intracranial xenograft, nude mice, TMZ 66 mg/kg oral daily x5 days): 300 | Temozolomide median survival (GBM16 xenograft; GBM16 intracranial, athymic nude mice, 66 mg/kg oral gavage for 5 days (Table 3)): 326 | Survival benefit (GBM22 / GS22 xenograft; GBM22, prolongation of median survival relative to placebo, TMZ 66 mg/kg oral x5 days): 260% | TMZ median survival (GBM22 / GS22 xenograft; GBM22 intracranial xenograft, nude mice, TMZ 66 mg/kg oral daily x5 days): 124 | Survival Prolongation (GBM22 / GS22 xenograft; GS22, median survival relative to placebo, 66 mg/kg oral for 5 days (Table 3)): 260% | Temozolomide median survival (GBM22 / GS22 xenograft; GS22 intracranial, athymic nude mice, 66 mg/kg oral gavage for 5 days (Table 3)): 155 | Survival Prolongation (GBM26 xenograft; GBM26): 21% | Survival Prolongation (GBM26 xenograft; GBM26, listed as Temozolomide): 21% | Survival benefit (GBM26 xenograft; GBM26, prolongation of median survival relative to placebo, TMZ 66 mg/kg oral x5 days): 21% | TMZ median survival (GBM26 xenograft; GBM26 intracranial xenograft, nude mice, TMZ 66 mg/kg oral daily x5 days): 100 | Temozolomide median survival (GBM26 xenograft; GBM26 intracranial, athymic nude mice, 66 mg/kg oral gavage for 5 days (Table 3)): 100 | Survival Prolongation (GBM34 xenograft; GBM34, median survival relative to placebo, 66 mg/kg oral for 5 days (Table 3)): 294% | Survival benefit (GBM34 xenograft; GBM34, prolongation of median survival relative to placebo, TMZ 66 mg/kg oral x5 days): 294% | TMZ median survival (GBM34 xenograft; GBM34 intracranial xenograft, nude mice, TMZ 66 mg/kg oral daily x5 days): 351 | Temozolomide median survival (GBM34 xenograft; GBM34 intracranial, athymic nude mice, 66 mg/kg oral gavage for 5 days (Table 3)): 351 | Survival benefit (GBM38 xenograft; GBM38, prolongation of median survival relative to placebo, TMZ 66 mg/kg oral x5 days): 45% | TMZ median survival (GBM38 xenograft; GBM38 intracranial xenograft, nude mice, TMZ 66 mg/kg oral daily x5 days): 80 | Survival Prolongation (GBM43 xenograft; GBM43, median survival relative to placebo, 66 mg/kg oral for 5 days (Table 3)): 87% | Survival benefit (GBM43 xenograft; GBM43, prolongation of median survival relative to placebo, TMZ 66 mg/kg oral x5 days): 87% | Survival benefit (GBM43 xenograft; GBM43 generation 6, TMZ 120 mg/kg for 5 days, intracranial): 104% | Survival benefit (GBM43 xenograft; GBM43 generation 10, TMZ 66 mg/kg for 5 days, intracranial): 83% | TMZ median survival (GBM43 xenograft; GBM43 intracranial xenograft, nude mice, TMZ 66 mg/kg oral daily x5 days): 43 | Temozolomide median survival (GBM43 xenograft; GBM43 intracranial, athymic nude mice, 66 mg/kg oral gavage for 5 days (Table 3)): 43 | Survival benefit (GBM46 xenograft; GBM46, prolongation of median survival relative to placebo, TMZ 66 mg/kg oral x5 days): 0% | TMZ median survival (GBM46 xenograft; GBM46 intracranial xenograft, nude mice, TMZ 66 mg/kg oral daily x5 days): 50 | additional survival from second TMZ dose ([1]; second TMZ dose at time of tumor regrowth/recurrence, beyond single-dose prolongation): 22 days | survival prolongation with a single TMZ dose ([1]; single dose of 120 mg/kg TMZ, relative to placebo/vehicle, intracranial GBM14-luciferase): 56 days
